For assay [1], the target named is purified human Factor XIa (Homo sapiens (Human), UniProt P03951). The experiment in a line: biochemical. Type of assay: biochemical. The settings on record: read-out: Factor XIa Ki.
For assay [2], the target named is purified human plasma kallikrein (Homo sapiens (Human), UniProt P03952). Briefly: biochemical. The settings on record: read-out: Plasma Kallikrein Ki. Type of assay: biochemical.

Where a name gives a salt, the structure may show the parent alone. Where only a bound is given, the exact number is not on record here.

In general, Ki refers to the equilibrium dissociation constant of an inhibitor or competing ligand from its target.

purified human plasma kallikrein, sequence (P03952 whole entry, looked up): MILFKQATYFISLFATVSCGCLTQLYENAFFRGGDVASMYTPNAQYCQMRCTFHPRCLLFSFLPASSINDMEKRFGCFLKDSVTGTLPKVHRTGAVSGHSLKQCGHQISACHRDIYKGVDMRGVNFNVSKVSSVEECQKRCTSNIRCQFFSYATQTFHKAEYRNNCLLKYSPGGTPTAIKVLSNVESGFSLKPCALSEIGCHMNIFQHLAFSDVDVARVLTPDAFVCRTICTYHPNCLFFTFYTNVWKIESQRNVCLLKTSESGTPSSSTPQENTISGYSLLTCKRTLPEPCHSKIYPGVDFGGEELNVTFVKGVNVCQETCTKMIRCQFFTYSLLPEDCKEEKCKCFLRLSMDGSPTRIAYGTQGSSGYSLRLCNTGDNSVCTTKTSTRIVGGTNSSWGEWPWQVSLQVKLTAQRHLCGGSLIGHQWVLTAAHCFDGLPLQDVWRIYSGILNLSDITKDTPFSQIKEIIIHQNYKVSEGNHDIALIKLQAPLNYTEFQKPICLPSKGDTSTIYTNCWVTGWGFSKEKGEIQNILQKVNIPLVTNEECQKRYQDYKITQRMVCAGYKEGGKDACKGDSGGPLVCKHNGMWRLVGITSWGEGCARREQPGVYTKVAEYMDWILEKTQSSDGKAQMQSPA
purified human plasma kallikrein, sequence (P03952 whole entry partner, looked up): as the sequence (P03952 whole entry, looked up) above
purified human Factor XIa, sequence (P03951 whole entry, looked up): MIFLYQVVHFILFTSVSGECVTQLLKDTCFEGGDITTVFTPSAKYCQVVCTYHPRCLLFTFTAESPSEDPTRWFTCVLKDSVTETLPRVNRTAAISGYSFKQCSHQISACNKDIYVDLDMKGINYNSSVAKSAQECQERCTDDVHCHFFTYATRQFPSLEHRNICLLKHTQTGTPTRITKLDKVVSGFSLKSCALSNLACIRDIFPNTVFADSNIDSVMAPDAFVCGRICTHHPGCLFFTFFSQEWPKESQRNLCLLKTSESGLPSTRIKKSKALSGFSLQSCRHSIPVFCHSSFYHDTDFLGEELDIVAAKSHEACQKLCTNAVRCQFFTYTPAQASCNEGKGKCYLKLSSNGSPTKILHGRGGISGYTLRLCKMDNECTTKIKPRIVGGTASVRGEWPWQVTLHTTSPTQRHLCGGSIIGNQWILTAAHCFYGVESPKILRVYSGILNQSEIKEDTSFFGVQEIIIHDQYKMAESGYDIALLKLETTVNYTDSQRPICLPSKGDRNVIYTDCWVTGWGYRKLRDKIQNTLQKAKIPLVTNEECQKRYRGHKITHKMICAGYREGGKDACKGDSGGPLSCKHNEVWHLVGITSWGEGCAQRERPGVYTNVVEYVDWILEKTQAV
purified human Factor XIa, sequence (P03951 whole entry partner, looked up): as the sequence (P03951 whole entry, looked up) above

In the case of `C[C@@H]1CCC[C@H](N2CCC(c3c(F)ccc(Cl)c3F)=CC2=O)c2cc(ccn2)-c2cc3c(O)cc(=O)[nH]c3cc2NC1=O` [Example 199, (14R,18S)-18-[4-(3-chloro-2,6-difluorophenyl)-6-oxo-1,2,3,6-tetrahydropyridin-1-yl]-5-hydroxy-14-methyl-8,12,20-triazatetracyclo[17.3.1.0^2,11.0^4,9]tricosa-1(23),2,4(9),5,10,19,21-heptaene-7,13-dione, TFA salt], the Ki is under 0.05 nM in assay [1] and 1.79 nM in assay [2].

Regarding `C[C@@H]1CCC[C@H](n2ccc(-c3c(F)ccc(Cl)c3F)cc2=O)c2cc(ccn2)-c2c(F)cccc2NC1=O` [Example 200, (10R,14S)-14-[4-(3-chloro-2,6-difluorophenyl)-2-oxo-1,2-dihydropyridin-1-yl]-3-fluoro-10-methyl-8,16-diazatricyclo[13.3.1.0^2,7]nonadeca-1(19),2(7),3,5,15,17-hexaen-9-one, TFA salt], the Ki in assay [1] amounted to 18.1 nM; in assay [2] it was 28.7 nM.

As to `C[C@@H]1CCC[C@H](N2CCC(c3c(F)ccc(Cl)c3F)=CC2=O)c2cc(ccn2)-c2c(F)cc(F)cc2NC1=O` [Example 201, (10R,14S)-14-[4-(3-chloro-2,6-difluorophenyl)-6-oxo-1,2,3,6-tetrahydropyridin-1-yl]-3,5-difluoro-10-methyl-8,16-diazatricyclo[13.3.1.0^2,7]nonadeca-1(19),2(7),3,5,15,17-hexaen-9-one, TFA salt], the Ki in assay [1] is 50 nM; in assay [2], 105 nM.

As for `C[C@@H]1CCC[C@H](N2CCC(c3c(Br)ccc(Cl)c3F)=CC2=O)c2cc(ccn2)-c2c(F)cc(F)cc2NC1=O` [Example 202, (10R,14S)-14-[4-(6-bromo-3-chloro-2-fluorophenyl)-6-oxo-1,2,3,6-tetrahydropyridin-1-yl]-3,5-difluoro-10-methyl-8,16-diazatricyclo[13.3.1.0^2,7]nonadeca-1(19),2(7),3,5,15,17-hexaen-9-one], the inhibitory constant (Ki) in assay [1] came out at 8.56 nM; in assay [2] it was 30.1 nM.

For `C[C@@H]1CCC[C@H](N2CCC(c3c(F)ccc(Cl)c3F)=CC2=O)c2cc(ccn2)-c2c(ccc(F)c2F)NC1=O` [Example 203, (10R,14S)-14-[4-(3-chloro-2,6-difluorophenyl)-6-oxo-1,2,3,6-tetrahydropyridin-1-yl]-3,4-difluoro-10-methyl-8,16-diazatricyclo[13.3.1.0^2,7]nonadeca-1(19),2(7),3,5,15,17-hexaen-9-one, TFA salt], the Ki in assay [1] was 19.4 nM; in assay [2], 44 nM.

For the compound `C[C@@H]1CCC[C@H](N2CCC(c3c(Br)ccc(Cl)c3F)=CC2=O)c2cc(ccn2)-c2c(ccc(F)c2F)NC1=O` [Example 204, (10R,14S)-14-[4-(6-bromo-3-chloro-2-fluorophenyl)-6-oxo-1,2,3,6-tetrahydropyridin-1-yl]-3,4-difluoro-10-methyl-8,16-diazatricyclo[13.3.1.0^2,7]nonadeca-1(19),2(7),3,5,15,17-hexaen-9-one, TFA salt], the Ki in assay [1] came out at 4.46 nM; in assay [2] it was 16 nM.

For the compound `C[C@@H]1CCC[C@H](N2CCC(c3c(F)ccc(Cl)c3F)=CC2=O)c2cc(ccn2)-c2cc(F)c(F)cc2NC1=O` [Example 205, (10R,14S)-14-[4-(3-chloro-2,6-difluorophenyl)-6-oxo-1,2,3,6-tetrahydropyridin-1-yl]-4,5-difluoro-10-methyl-8,16-diazatricyclo[13.3.1.0^2,7]nonadeca-1(19),2(7),3,5,15,17-hexaen-9-one, TFA salt], the Ki in assay [1] was found to be 69.2 nM; in assay [2], 88.4 nM.

`C[C@@H]1CCC[C@H](N2CCC(c3c(Br)ccc(Cl)c3F)=CC2=O)c2cc(ccn2)-c2cc(F)c(F)cc2NC1=O` [Example 206, (10R,14S)-14-[4-(6-bromo-3-chloro-2-fluorophenyl)-6-oxo-1,2,3,6-tetrahydropyridin-1-yl]-4,5-difluoro-10-methyl-8,16-diazatricyclo[13.3.1.0^2,7]nonadeca-1(19),2(7),3,5,15,17-hexaen-9-one, TFA salt]: the Ki in assay [1] came out at 11.8 nM; in assay [2], 27.5 nM.

In the case of `C[C@@H]1CCC[C@H](N2CCC(c3c(C#N)ccc(Cl)c3F)=CC2=O)c2cc(ccn2)-c2c(F)cc(F)cc2NC1=O` [Example 207, 4-chloro-2-{1-[(10R,14S)-3,5-difluoro-10-methyl-9-oxo-8,16-diazatricyclo[13.3.1.0^2,7]nonadeca-1(19),2(7),3,5,15,17-hexaen-14-yl]-6-oxo-1,2,3,6-tetrahydropyridin-4-yl}-3-fluorobenzonitrile, TFA salt], the Ki in assay [1] came out at 2.75 nM; in assay [2], 5.8 nM.

As for `C[C@@H]1CCC[C@H](N2CCC(c3c(C#N)ccc(Cl)c3F)=CC2=O)c2cc(ccn2)-c2c(ccc(F)c2F)NC1=O` [Example 208, 4-chloro-2-{1-[(10R,14S)-3,4-difluoro-10-methyl-9-oxo-8,16-diazatricyclo[13.3.1.0^2,7]nonadeca-1(19),2(7),3,5,15,17-hexaen-14-yl]-6-oxo-1,2,3,6-tetrahydropyridin-4-yl}-3-fluorobenzonitrile, TFA salt], the figures for the Ki in assay [1] and in assay [2] were 1 nM and 3.1 nM, respectively.

Turning to `C[C@@H]1CCC[C@H](N2CCC(c3c(C#N)ccc(C#N)c3F)=CC2=O)c2cc(ccn2)-c2c(ccc(F)c2F)NC1=O` [Example 209, 2-{1-[(10R,14S)-3,4-difluoro-10-methyl-9-oxo-8,16-diazatricyclo[13.3.1.0^2,7]nonadeca-1(19),2(7),3,5,15,17-hexaen-14-yl]-6-oxo-1,2,3,6-tetrahydropyridin-4-yl}-3-fluorobenzene-1,4-dicarbonitrile, TFA salt], the values for the Ki in assay [1] and in assay [2] were 120 nM and 457 nM, respectively.

With `C[C@@H]1CCC[C@H](N2CCC(c3c(C#N)ccc(C#N)c3F)=CC2=O)c2cc(ccn2)-c2cc(F)c(F)cc2NC1=O` [Example 210, 2-{1-[(10R,14S)-4,5-difluoro-10-methyl-9-oxo-8,16-diazatricyclo[13.3.1.0^2,7]nonadeca-1(19),2(7),3,5,15,17-hexaen-14-yl]-6-oxo-1,2,3,6-tetrahydropyridin-4-yl}-3-fluorobenzene-1,4-dicarbonitrile, TFA salt], the inhibitory constant (Ki) in assay [1] is 477 nM; in assay [2] it was 1200 nM.

With `C[C@@H]1CCC[C@H](N2CCC(c3c(C#N)ccc(Cl)c3F)=CC2=O)c2cc(ccn2)-c2cc(F)c(F)cc2NC1=O` [Example 211, 4-chloro-2-{1-[(10R,14S)-4,5-difluoro-10-methyl-9-oxo-8,16-diazatricyclo[13.3.1.0^2,7]nonadeca-1(19),2(7),3,5,15,17-hexaen-14-yl]-6-oxo-1,2,3,6-tetrahydropyridin-4-yl}-3-fluorobenzonitrile, TFA salt], the values for the Ki in assay [1] and in assay [2] were 3.26 nM and 6.46 nM, respectively.

In the case of `C[C@@H]1CCC[C@H](n2ccc(-c3cccc(Cl)c3F)cc2=O)c2cc(ccn2)-c2c(F)cc(F)cc2NC1=O` [Example 212, (10R,14S)-14-[4-(3-chloro-2-fluorophenyl)-2-oxo-1,2-dihydropyridin-1-yl]-3,5-difluoro-10-methyl-8,16-diazatricyclo[13.3.1.0^2,7]nonadeca-1(19),2(7),3,5,15,17-hexaen-9-one, TFA salt], the Ki in assay [1] is 111 nM; in assay [2], 286 nM.

Regarding `COC(=O)c1cccc2c1-c1ccnc(c1)[C@@H](N1CCC(c3c(F)ccc(Cl)c3F)=CC1=O)CCC[C@@H](C)C(=O)N2` [Example 213, Methyl (10R,14S)-14-[4-(3-chloro-2,6-difluorophenyl)-6-oxo-1,2,3,6-tetrahydropyridin-1-yl]-10-methyl-9-oxo-8,16-diazatricyclo[13.3.1.0^2,7]nonadeca-1(19),2(7),3,5,15,17-hexaene-3-carboxylate, TFA salt], the figures for the Ki in assay [1] and in assay [2] were over 413 nM and 3370 nM, respectively.

With `C[C@@H]1CCC[C@H](N2CCC(c3c(F)ccc(Cl)c3F)=CC2=O)c2cc(ccn2)-c2c(cccc2C(=O)O)NC1=O` [Example 214, (10R,14S)-14-[4-(3-chloro-2,6-difluorophenyl)-6-oxo-1,2,3,6-tetrahydropyridin-1-yl]-10-methyl-9-oxo-8,16-diazatricyclo[13.3.1.0^2,7]nonadeca-1(19),2(7),3,5,15,17-hexaene-3-carboxylic acid, TFA salt], the inhibition constant Ki in assay [1] is over 423 nM; in assay [2], over 13000 nM.

On to `C[C@@H]1CCC[C@H](N2CCC(c3c(-n4cnnn4)ccc(Cl)c3F)=CC2=O)c2cc(ccn2)-c2cc(F)c(F)cc2NC1=O` [Example 215, (10R,14S)-14-{4-[3-chloro-2-fluoro-6-(1H-1,2,3,4-tetrazol-1-yl)phenyl]-6-oxo-1,2,3,6-tetrahydropyridin-1-yl}-4,5-difluoro-10-methyl-8,16-diazatricyclo[13.3.1.0^2,7]nonadeca-1(19),2(7),3,5,15,17-hexaen-9-one, TFA salt], for which the results for the inhibition constant Ki in assay [1] and in assay [2] were 0.07 nM and 3.61 nM, respectively.

For the compound `COC(=O)Nc1ccc2c(c1)C(=O)NCC/C=C/C[C@H](N1CCC(c3c(F)ccc(Cl)c3F)=CC1=O)c1cc-2ccn1` [Example 216, Methyl N-[(12E,15S)-15-[4-(3-chloro-2,6-difluorophenyl)-6-oxo-1,2,3,6-tetrahydropyridin-1-yl]-8-oxo-9,17-diazatricyclo[14.3.1.0^2,7]icosa-1(20),2(7),3,5,12,16,18-heptaen-5-yl]carbamate, TFA salt], the figures for the inhibition constant (Ki) in assay [1] and in assay [2] were 264 nM and 212 nM, respectively.

In the case of `COC(=O)Nc1ccc2c(c1)NC(=O)CCCCC[C@H](N1CCC(c3c(F)ccc(Cl)c3F)=CC1=O)c1cc-2ccn1` [Example 219, Methyl N-[(15S)-15-[4-(3-chloro-2,6-difluorophenyl)-6-oxo-1,2,3,6-tetrahydropyridin-1-yl]-9-oxo-8,17-diazatricyclo[14.3.1.0^2,7]icosa-1(20),2(7),3,5,16,18-hexaen-5-yl]carbamate, TFA salt], the Ki in assay [1] was determined as 6.61 nM; in assay [2] it was 6.85 nM.

The record behind these values is patent publication US9409908B2 (priority 2012, dated 2016).
